Target: T1, human PDE10A (Homo sapiens, UniProt Q9Y233)
T1 construct: The human PDE10A full length assay; purchased Enzo Life Science, Lausen, Switzerland SE-534
Experiment: human PDE10A full length Scintillation Proximity Assay (SPA)
Assay type: biochemical
Conditions: 50 nM cGMP and 50 nM [3H]-cGMP, 20 minutes at room temperature; read-out: PDE10A inhibition IC50
Method: The following test was carried out in order to determine the activity of the compounds of the present invention. PDE10 activity of the compounds of the present invention was determined using a Scintillation Proximity Assay (SPA)-based method similar to the one previously described (Fawcett, L. et al., Proc Natl Acad Sci USA (2000) 97(7):3702-3707).
The human PDE10A full length assay was performed in 96-well micro titer plates. The reaction mixture of 50 μl contained 20 mM HEPES pH=7.5/10 mM MgCl2/0.05 mg/ml BSA (Sigma cat. #A-7906), 50 nM cGMP (Sigma, cat. #G6129) and 50 nM [^3H]-cGMP (GE Healthcare, cat. #TRK392 S.A. 13.2 Ci/mmol), 3.75 ng/well PDE10A enzyme (Enzo Life Science, Lausen, Switzerland cat #SE-534) with or without a specific test compound. A range of concentrations of the potential inhibitor was used to generate data for calculating the concentration of inhibitor resulting in 50% of the effect (e.g. IC50, the concentration of the competitor inhibiting PDE10A activity by 50%). Non-specific activity was tested without the enzyme. The reaction was initiated by the addition of the substrate solution (cGMP and [^3H]-cGMP) and allowed to progress for 20 minutes at room temperature. The reaction was terminated by adding 25 μl of YSi-SPA scintillation beads (GE Healthcare, cat. #RPNQ0150) in 18 mM zinc sulphate solution (stop reagent). After 1 h under shaking, the plate was centrifuged one minute at 170 g to allow beads to settle. Afterwards, radioactive counts were measured on a Perkin Elmer TopCount Scintillation plate reader.

T1 sequence (Q9Y233 1-779 isoform Q9Y233-1): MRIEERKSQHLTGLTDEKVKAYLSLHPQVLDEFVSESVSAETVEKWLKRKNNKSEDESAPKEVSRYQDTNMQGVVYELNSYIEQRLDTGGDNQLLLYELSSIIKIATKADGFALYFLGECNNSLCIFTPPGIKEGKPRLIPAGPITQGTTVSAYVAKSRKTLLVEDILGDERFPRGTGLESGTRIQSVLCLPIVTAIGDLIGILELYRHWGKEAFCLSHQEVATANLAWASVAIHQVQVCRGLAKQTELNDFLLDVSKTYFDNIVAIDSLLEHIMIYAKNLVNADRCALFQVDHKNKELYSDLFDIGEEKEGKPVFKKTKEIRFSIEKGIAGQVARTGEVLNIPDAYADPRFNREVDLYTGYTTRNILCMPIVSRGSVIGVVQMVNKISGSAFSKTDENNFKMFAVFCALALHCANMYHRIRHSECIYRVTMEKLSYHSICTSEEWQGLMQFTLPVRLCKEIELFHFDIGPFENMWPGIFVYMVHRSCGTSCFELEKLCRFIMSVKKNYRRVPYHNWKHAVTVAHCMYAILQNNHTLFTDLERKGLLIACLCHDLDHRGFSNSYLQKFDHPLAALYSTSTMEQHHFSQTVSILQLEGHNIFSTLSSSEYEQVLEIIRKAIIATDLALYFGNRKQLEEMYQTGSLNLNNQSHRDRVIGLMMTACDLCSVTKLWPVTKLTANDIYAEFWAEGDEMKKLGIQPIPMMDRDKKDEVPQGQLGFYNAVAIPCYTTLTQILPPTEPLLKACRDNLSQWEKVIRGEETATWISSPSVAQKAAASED

| Compound | IC50 [µM] |
| --- | --- |
| CCCNC(=O)c1cnn(C)c1C(=O)Nc1ccn2cc(-c3ccccc3)nc2n1 [Example 57, 2-Methyl-2H-pyrazole-3,4-dicarboxylic acid 3-[(2-phenyl-imidazo[1,2-a]pyrimidin-7-yl)-amide]-4-propylamide] | 0.023 |
| CN(C)C(=O)c1cnn(C)c1C(=O)Nc1ccn2cc(-c3cccc(O)c3)nc2n1 [Example 84, 2-Methyl-2H-pyrazole-3,4-dicarboxylic acid 4-dimethylamide 3-{[2-(3-hydroxy-phenyl)-imidazo[1,2-a]pyrimidin-7-yl]-amide}] | 0.0038 |
| Cn1ncc(C(=O)N2CC(O)C2)c1C(=O)Nc1ccn2cc(-c3ccccc3)nc2n1 [Example 36, 4-(3-Hydroxy-azetidine-1-carbonyl)-2-methyl-2H-pyrazole-3-carboxylic acid (2-phenyl-imidazo[1,2-a]pyrimidin-7-yl)-amide] | 0.032 |
| Cn1cc(C(=O)Nc2ccn3cc(-c4ccccc4)nc3n2)c(C(=O)N2CCC2)n1 [Example 66, 3-(Azetidine-1-carbonyl)-1-methyl-1H-pyrazole-4-carboxylic acid (2-phenyl-imidazo[1,2-a]pyrimidin-7-yl)-amide] | 0.0115 |
| Cc1nn(C)c(C(=O)Nc2ccn3cc(-c4ccccc4)nc3n2)c1Cl [Example 3, 4-Chloro-2,5-dimethyl-2H-pyrazole-3-carboxylic acid (2-phenyl-imidazo[1,2-a]pyrimidin-7-yl)-amide] | 0.097 |
| CN(Cc1ccc(Br)cn1)C(=O)c1cnn(C)c1C(=O)Nc1ccn2cc(-c3ccccc3)nc2n1 [Example 136, N4-((5-bromopyridin-2-yl)methyl)-N4,1-dimethyl-N5-(2-phenylimidazo[1,2-a]pyrimidin-7-yl)-1H-pyrazole-4,5-dicarboxamide] | 0.0997 |
| CN(CCF)C(=O)c1cnn(C)c1C(=O)Nc1ccn2cc(-c3cccc(F)c3)nc2n1 [Example 104, 2-Methyl-2H-pyrazole-3,4-dicarboxylic acid 4-[(2-fluoro-ethyl)-methyl-amide]3-{[2-(3-fluoro-phenyl)-imidazo[1,2-a]pyrimidin-7-yl]-amide}] | 0.0296 |
| Cn1ncc(C(=O)N2CCC2)c1C(=O)Nc1ccn2cc(-c3cccc(Br)c3)nc2n1 [Example 117, 4-(azetidine-1-carbonyl)-N-(2-(3-bromophenyl)imidazo[1,2-a]pyrimidin-7-yl)-1-methyl-1H-pyrazole-5-carboxamide] | 0.0062 |
| COc1cccc(-c2cn3ccc(NC(=O)c4c(C(=O)N5CCC5)cnn4C)nc3n2)c1 [Example 45, 4-(Azetidine-1-carbonyl)-2-methyl-2H-pyrazole-3-carboxylic acid [2-(3-methoxy-phenyl)-imidazo[1,2-a]pyrimidin-7-yl]-amide] | 0.0083 |
| CCn1ncc(C(=O)NC)c1C(=O)Nc1ccn2cc(-c3ccccc3)nc2n1 [Example 64, 2-Ethyl-2H-pyrazole-3,4-dicarboxylic acid 4-methylamide 3-[(2-phenyl-imidazo[1,2-a]pyrimidin-7-yl)-amide]] | 0.0065 |
| CCN(C)C(=O)c1nn(C)cc1C(=O)Nc1ccn2cc(-c3ccccc3)nc2n1 [Example 67, 1-Methyl-1H-pyrazole-3,4-dicarboxylic acid 3-(ethyl-methyl-amide) 4-[(2-phenyl-imidazo[1,2-a]pyrimidin-7-yl)-amide]] | 0.0257 |
| Cn1ncc(C(=O)NCc2cn3ccsc3n2)c1C(=O)Nc1ccn2cc(-c3ccccc3)nc2n1 [Example 153, N4-(imidazo[2,1-b]thiazol-6-ylmethyl)-1-methyl-N5-(2-phenylimidazo[1,2-a]pyrimidin-7-yl)-1H-pyrazole-4,5-dicarboxamide] | 0.305 |
| Cc1nc(CNC(=O)c2cnn(C)c2C(=O)Nc2ccn3cc(-c4ccccc4)nc3n2)cs1 [Example 163, 1-methyl-N4-((2-methylthiazol-4-yl)methyl)-N5-(2-phenylimidazo[1,2-a]pyrimidin-7-yl)-1H-pyrazole-4,5-dicarboxamide] | 0.636 |
| CC1CCCN1C(=O)c1cnn(C)c1C(=O)Nc1ccn2cc(-c3ccccc3)nc2n1 (stereo not shown) [Example 116, 1-methyl-4-(2-methylpyrrolidine-1-carbonyl)-N-(2-phenylimidazo[1,2-a]pyrimidin-7-yl)-1H-pyrazole-5-carboxamide] | 0.0051 |
| CN(CCC#N)C(=O)c1cnn(C)c1C(=O)Nc1ccn2cc(-c3ccccc3)nc2n1 [Example 70, 2-Methyl-2H-pyrazole-3,4-dicarboxylic acid 4-[(2-cyano-ethyl)-methyl-amide]3-[(2-phenyl-imidazo[1,2-a]pyrimidin-7-yl)-amide]] | 0.0332 |
| Cc1cc(Br)c(C)c(C(=O)Nc2ccn3cc(-c4ccccc4)nc3n2)n1 [Example 24, 4-Bromo-3,6-dimethyl-pyridine-2-carboxylic acid (2-phenyl-imidazo[1,2-a]pyrimidin-7-yl)-amide] | 0.321 |

| Compound | IC50 [µM] |
| --- | --- |
| O=C(Nc1ccn2cc(-c3ccccc3)nc2n1)c1ccnc(Cl)c1 [Example 19, 2-Chloro-N-(2-phenyl-imidazo[1,2-a]pyrimidin-7-yl)-isonicotinamide] | 0.553 |
| Cn1ccc(CNC(=O)c2cnn(C)c2C(=O)Nc2ccn3cc(-c4ccccc4)nc3n2)n1 [Example 157, 1-methyl-N-4-((1-methyl-1H-pyrazol-3-yl)methyl)-N5-(2-phenylimidazo[1,2-a]pyrimidin-7-yl)-1H-pyrazole-4,5-dicarboxamide] | 0.389 |
| Cn1ncc(C(=O)NCCCO)c1C(=O)Nc1ccn2cc(-c3ccccc3)nc2n1 [Example 38] | 0.0229 |
| Cn1ncc(C(=O)NC(C)(C)C)c1C(=O)Nc1ccn2cc(-c3ccccc3)nc2n1 [Example 138, N4-tert-butyl-1-methyl-N5-(2-phenylimidazo[1,2-a]pyrimidin-7-yl)-1H-pyrazole-4,5-dicarboxamide] | 0.13 |
| CCn1ncc(Cl)c1C(=O)Nc1ccn2cc(-c3ccccc3)nc2n1 [Example 7, 4-Chloro-2-ethyl-2H-pyrazole-3-carboxylic acid (2-phenyl-imidazo[1,2-a]pyrimidin-7-yl)-amide] | 0.14 |
| Cc1ccc(C)c(C(=O)Nc2ccn3cc(-c4ccccc4)nc3n2)n1 [Example 17, 3,6-Dimethyl-pyridine-2-carboxylic acid (2-phenyl-imidazo[1,2-a]pyrimidin-7-yl)-amide] | 0.0283 |
| Cn1ncc(C(=O)NCc2ccon2)c1C(=O)Nc1ccn2cc(-c3ccccc3)nc2n1 [Example 146, N4-(isoxazol-3-ylmethyl)-1-methyl-N5-(2-phenylimidazo[1,2-a]pyrimidin-7-yl)-1H-pyrazole-4,5-dicarboxamide] | 0.212 |
| Cc1cccc(C(=O)Nc2ccn3cc(-c4ccccc4)nc3n2)n1 [Example 25, 6-Methyl-pyridine-2-carboxylic acid (2-phenyl-imidazo[1,2-a]pyrimidin-7-yl)-amide] | 0.324 |
| CN(C)C(=O)c1cnn(C)c1C(=O)Nc1ccn2cc(-c3cccc(OCCF)c3)nc2n1 [Example 102, 2-Methyl-2H-pyrazole-3,4-dicarboxylic acid 4-dimethylamide 3-({2-[3-(2-fluoro-ethoxy)-phenyl]-imidazo[1,2-a]pyrimidin-7-yl}-amide)] | 0.0279 |
| Cn1ncc(C(=O)NCC2CC2)c1C(=O)Nc1ccn2cc(-c3ccccc3)nc2n1 [Example 58, 2-Methyl-2H-pyrazole-3,4-dicarboxylic acid 4-cyclopropylmethyl-amide 3-[(2-phenyl-imidazo[1,2-a]pyrimidin-7-yl)-amide]] | 0.0273 |
| CC(=O)Oc1cccc(-c2cn3ccc(NC(=O)c4c(C(=O)N5CCC5)cnn4C)nc3n2)c1 [Example 105, 3-(7-(4-(azetidine-1-carbonyl)-1-methyl-1H-pyrazole-5-carboxamido)imidazo[1,2-a]pyrimidin-2-yl)phenyl acetate] | 0.0366 |
| Cn1ncc(C(=O)NCC(C)(C)O)c1C(=O)Nc1ccn2cc(-c3ccccc3)nc2n1 [Example 72, 2-Methyl-2H-pyrazole-3,4-dicarboxylic acid 4-[(2-hydroxy-2-methyl-propyl)-amide]3-[(2-phenyl-imidazo[1,2-a]pyrimidin-7-yl)-amide]] | 0.463 |
| CCN(C)C(=O)c1[nH]nnc1C(=O)Nc1ccn2cc(-c3ccccc3)nc2n1 [Example 28, 1H-[1,2,3]Triazole-4,5-dicarboxylic acid 5-(ethyl-methyl-amide) 4-[(2-phenyl-imidazo[1,2-a]pyrimidin-7-yl)-amide]] | 0.251 |
| COCCN(C)C(=O)c1cnn(C)c1C(=O)Nc1ccn2cc(-c3cccc(OCCF)c3)nc2n1 [Example 96, 2-Methyl-2H-pyrazole-3,4-dicarboxylic acid 3-({2-[3-(2-fluoro-ethoxy)-phenyl]-imidazo[1,2-a]pyrimidin-7-yl}-amide) 4-[(2-methoxy-ethyl)-methyl-amide]] | 0.0126 |
| Cn1ncc(C(=O)NCc2ccc(Cl)nc2)c1C(=O)Nc1ccn2cc(-c3ccccc3)nc2n1 [Example 154, N4-((6-chloropyridin-3-yl)methyl)-1-methyl-N5-(2-phenylimidazo[1,2-a]pyrimidin-7-yl)-1H-pyrazole-4,5-dicarboxamide] | 0.315 |
